Source: the kinase profiling compilation of Christmann-Franck et al. (2016)
Several values for one entry are separate records, joined by “and”; a condition that tells them apart may be missing. Equal values may be shown once.

How the values were obtained:
Assay in all cases: KINOMEscan competition binding
Settings in all cases: compound 10.0 µM
LIMK2 (human) = LIMK2 (human) (UniProt P53671)
TNIK (human) = TNIK (human) (UniProt Q9UKE5)
ROS1 (human) = ROS1 (human) (UniProt P08922)
CDK19 (human) = CDK19 (human) (UniProt Q9BWU1)
[1] = tested on: EGFR (human), P00533 [A750P; 747-749 del]
MYO3A (human) = MYO3A (human) (UniProt Q8NEV4)
PRKD1 (human) = PRKD1 (human) (UniProt Q15139)
BLK (human) = BLK (human) (UniProt P51451)
STK24 (human) = STK24 (human) (UniProt Q9Y6E0)
MAPK3 (human) = MAPK3 (human) (UniProt P27361)
CDKL2 (human) = CDKL2 (human) (UniProt Q92772)
KDR (human) = KDR (human) (UniProt P35968)
RPS6KA1 KD1 (human) = RPS6KA1 KD1 (human) (UniProt Q15418)
NTRK3 (human) = NTRK3 (human) (UniProt Q16288)
DAPK1 (human) = DAPK1 (human) (UniProt P53355)
DDR1 (human) = DDR1 (human) (UniProt Q08345)
PTK6 (human) = PTK6 (human) (UniProt Q13882)
EPHB3 (human) = EPHB3 (human) (UniProt P54753)
YES1 (human) = YES1 (human) (UniProt P07947)
[2] = tested on: KIT (human), P10721 [A829P]
ULK1 (human) = ULK1 (human) (UniProt O75385)
SNRK (human) = SNRK (human) (UniProt Q9NRH2)
MTOR (human) = MTOR (human) (UniProt P42345)
FLT1 (human) = FLT1 (human) (UniProt P17948)
CDK3 (human) = CDK3 (human) (UniProt Q00526)
PIP4K2C (human) = PIP4K2C (human) (UniProt Q8TBX8)
TSSK1B (human) = TSSK1B (human) (UniProt Q9BXA7)
SRPK3 (human) = SRPK3 (human) (UniProt Q9UPE1)
[3] = tested on: FLT3 (human), P36888 [D835Y]
INSR (human) = INSR (human) (UniProt P06213)
CAMKK2 (human) = CAMKK2 (human) (UniProt Q96RR4)
STK17A (human) = STK17A (human) (UniProt Q9UEE5)
TAOK3 (human) = TAOK3 (human) (UniProt Q9H2K8)
CDK5 (human) = CDK5 (human) (UniProt Q00535)
AXL (human) = AXL (human) (UniProt P30530)
PIK3CG (human) = PIK3CG (human) (UniProt P48736)
RAF1 (human) = RAF1 (human) (UniProt P04049)
KIT (human) = KIT (human) (UniProt P10721)
CSNK1E (human) = CSNK1E (human) (UniProt P49674)
STK38 (human) = STK38 (human) (UniProt Q15208)

Chain of NTRK3 (human) (Q16288 whole entry, looked up): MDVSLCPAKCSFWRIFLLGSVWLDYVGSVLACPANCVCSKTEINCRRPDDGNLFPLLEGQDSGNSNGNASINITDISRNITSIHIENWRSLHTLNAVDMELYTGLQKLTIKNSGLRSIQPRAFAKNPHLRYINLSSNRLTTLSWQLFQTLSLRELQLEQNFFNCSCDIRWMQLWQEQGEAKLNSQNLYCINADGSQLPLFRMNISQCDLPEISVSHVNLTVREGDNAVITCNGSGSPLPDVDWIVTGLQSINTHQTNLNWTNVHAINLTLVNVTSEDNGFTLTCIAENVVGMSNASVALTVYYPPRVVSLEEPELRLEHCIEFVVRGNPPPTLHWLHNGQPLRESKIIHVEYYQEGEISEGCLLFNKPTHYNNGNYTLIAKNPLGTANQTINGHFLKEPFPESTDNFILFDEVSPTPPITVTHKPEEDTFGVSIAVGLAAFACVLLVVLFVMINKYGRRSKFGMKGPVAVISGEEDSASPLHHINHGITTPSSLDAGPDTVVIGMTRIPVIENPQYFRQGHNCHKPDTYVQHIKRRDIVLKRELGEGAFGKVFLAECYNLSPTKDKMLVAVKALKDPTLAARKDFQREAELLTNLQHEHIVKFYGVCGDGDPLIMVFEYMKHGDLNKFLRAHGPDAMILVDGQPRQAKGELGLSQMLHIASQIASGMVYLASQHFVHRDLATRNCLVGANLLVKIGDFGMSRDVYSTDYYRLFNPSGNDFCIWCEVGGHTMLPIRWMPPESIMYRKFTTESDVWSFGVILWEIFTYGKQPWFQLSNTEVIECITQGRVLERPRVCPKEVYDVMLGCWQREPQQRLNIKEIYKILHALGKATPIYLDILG
Chain of TNIK (human) (Q9UKE5 whole entry, looked up): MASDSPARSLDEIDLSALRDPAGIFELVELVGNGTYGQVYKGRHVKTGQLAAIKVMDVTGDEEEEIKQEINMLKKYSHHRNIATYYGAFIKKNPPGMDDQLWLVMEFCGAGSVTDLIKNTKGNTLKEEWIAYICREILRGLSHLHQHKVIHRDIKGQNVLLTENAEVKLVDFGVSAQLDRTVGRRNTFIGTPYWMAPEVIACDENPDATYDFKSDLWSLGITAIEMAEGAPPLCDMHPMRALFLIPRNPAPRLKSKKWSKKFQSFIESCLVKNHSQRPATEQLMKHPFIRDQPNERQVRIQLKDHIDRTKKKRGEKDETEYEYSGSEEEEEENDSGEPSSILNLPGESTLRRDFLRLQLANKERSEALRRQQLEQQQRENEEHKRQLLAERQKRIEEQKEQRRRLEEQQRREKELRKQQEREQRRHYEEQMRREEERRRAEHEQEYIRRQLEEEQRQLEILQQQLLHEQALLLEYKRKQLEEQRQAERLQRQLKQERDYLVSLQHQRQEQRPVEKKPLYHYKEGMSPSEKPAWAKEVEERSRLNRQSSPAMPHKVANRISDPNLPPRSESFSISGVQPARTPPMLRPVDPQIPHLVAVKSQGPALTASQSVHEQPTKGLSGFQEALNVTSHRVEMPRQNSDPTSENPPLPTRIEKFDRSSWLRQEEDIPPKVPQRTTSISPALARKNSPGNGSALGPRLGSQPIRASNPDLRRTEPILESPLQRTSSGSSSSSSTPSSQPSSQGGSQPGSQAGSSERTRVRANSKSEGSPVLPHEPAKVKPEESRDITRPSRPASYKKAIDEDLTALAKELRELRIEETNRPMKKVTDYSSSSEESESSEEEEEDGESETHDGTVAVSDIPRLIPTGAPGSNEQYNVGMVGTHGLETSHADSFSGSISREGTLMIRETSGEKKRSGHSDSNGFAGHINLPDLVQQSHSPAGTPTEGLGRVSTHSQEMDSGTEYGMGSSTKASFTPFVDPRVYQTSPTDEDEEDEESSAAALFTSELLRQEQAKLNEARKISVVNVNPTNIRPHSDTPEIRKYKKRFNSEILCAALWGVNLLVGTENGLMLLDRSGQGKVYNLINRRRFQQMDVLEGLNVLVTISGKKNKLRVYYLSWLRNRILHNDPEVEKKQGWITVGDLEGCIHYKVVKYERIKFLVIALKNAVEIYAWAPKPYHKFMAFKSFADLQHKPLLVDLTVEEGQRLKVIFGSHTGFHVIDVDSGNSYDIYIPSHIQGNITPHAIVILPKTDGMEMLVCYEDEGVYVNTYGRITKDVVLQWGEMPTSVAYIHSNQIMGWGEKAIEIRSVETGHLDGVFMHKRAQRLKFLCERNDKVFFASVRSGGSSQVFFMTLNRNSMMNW
Chain of FLT1 (human) (P17948 whole entry, looked up): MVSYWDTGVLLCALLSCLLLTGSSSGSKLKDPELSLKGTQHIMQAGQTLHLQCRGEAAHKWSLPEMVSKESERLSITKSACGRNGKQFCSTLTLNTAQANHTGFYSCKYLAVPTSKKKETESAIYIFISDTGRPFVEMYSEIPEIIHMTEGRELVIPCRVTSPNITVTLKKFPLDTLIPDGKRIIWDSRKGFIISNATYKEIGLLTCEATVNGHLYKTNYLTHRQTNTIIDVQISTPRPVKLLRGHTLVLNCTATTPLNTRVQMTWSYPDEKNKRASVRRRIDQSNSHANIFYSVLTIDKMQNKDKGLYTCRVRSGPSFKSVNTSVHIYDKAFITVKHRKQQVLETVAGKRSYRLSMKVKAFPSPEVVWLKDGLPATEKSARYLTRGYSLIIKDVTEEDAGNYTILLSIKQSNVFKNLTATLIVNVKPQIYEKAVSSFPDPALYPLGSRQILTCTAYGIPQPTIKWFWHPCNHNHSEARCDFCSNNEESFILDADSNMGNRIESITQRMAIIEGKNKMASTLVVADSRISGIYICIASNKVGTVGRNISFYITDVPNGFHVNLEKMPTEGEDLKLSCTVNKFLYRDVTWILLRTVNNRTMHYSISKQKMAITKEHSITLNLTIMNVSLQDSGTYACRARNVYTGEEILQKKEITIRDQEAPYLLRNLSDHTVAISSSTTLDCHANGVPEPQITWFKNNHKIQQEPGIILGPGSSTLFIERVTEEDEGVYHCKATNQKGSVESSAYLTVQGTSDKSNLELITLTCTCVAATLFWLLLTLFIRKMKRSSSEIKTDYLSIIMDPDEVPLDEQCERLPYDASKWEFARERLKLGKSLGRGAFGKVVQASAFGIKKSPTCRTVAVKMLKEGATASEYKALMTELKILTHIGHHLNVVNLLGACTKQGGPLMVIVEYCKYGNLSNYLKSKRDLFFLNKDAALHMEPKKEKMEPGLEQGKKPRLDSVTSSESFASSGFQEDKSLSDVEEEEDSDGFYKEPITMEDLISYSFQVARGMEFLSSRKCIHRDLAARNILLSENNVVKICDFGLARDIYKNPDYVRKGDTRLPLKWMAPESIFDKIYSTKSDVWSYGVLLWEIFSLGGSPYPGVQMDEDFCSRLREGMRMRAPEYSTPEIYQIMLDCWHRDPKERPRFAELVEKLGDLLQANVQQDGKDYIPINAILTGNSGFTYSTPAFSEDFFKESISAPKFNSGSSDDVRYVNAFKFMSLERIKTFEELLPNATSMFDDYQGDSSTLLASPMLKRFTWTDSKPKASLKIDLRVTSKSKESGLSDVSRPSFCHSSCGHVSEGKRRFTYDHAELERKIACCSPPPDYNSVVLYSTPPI
Chain of CSNK1E (human) (P49674 whole entry, looked up): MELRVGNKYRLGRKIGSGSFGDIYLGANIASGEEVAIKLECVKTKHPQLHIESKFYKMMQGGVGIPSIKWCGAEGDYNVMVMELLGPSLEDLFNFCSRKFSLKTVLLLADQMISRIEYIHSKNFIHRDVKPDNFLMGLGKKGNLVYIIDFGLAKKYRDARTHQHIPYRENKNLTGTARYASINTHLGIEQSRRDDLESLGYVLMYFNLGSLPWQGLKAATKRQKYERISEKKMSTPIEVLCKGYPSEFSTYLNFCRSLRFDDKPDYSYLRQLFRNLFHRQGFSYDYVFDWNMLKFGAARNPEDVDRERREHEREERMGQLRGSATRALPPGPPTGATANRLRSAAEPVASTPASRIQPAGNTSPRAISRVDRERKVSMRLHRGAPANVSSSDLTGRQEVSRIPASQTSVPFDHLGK
Chain of BLK (human) (P51451 whole entry, looked up): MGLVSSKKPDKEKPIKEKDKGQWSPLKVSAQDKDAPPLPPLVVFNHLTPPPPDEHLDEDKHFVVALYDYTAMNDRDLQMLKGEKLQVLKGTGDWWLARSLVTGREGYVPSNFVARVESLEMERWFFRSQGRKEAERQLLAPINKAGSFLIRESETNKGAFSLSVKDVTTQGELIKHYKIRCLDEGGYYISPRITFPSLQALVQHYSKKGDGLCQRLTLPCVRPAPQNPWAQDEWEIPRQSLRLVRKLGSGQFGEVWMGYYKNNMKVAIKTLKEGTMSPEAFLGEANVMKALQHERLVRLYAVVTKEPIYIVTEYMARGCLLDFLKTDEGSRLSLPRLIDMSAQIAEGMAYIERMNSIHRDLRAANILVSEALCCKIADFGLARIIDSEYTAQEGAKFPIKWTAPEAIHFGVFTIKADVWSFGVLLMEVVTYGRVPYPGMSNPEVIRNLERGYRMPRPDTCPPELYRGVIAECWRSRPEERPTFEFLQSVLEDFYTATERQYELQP
Chain of CAMKK2 (human) (Q96RR4 whole entry, looked up): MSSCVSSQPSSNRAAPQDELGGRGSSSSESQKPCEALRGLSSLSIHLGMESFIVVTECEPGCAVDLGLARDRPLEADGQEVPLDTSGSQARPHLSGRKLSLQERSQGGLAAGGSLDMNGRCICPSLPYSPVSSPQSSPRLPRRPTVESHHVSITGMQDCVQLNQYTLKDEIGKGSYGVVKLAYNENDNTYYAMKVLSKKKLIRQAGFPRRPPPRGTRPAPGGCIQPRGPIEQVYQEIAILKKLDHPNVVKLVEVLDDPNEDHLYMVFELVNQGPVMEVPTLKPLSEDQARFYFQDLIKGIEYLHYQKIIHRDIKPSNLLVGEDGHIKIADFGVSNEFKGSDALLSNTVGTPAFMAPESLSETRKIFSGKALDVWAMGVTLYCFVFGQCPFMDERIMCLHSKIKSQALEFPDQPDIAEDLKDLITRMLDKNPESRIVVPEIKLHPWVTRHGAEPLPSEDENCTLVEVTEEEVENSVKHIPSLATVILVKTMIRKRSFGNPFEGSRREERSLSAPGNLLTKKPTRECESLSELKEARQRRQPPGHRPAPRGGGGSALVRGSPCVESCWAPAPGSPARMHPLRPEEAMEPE

SMILES | kinase still bound, per cent of control (LIMK2 (human)) [%] | kinase still bound, per cent of control (TNIK (human)) [%] | kinase still bound, per cent of control (ROS1 (human)) [%] | kinase still bound, per cent of control (CDK19 (human)) [%] | kinase still bound, per cent of control [1] [%] | kinase still bound, per cent of control (MYO3A (human)) [%] | kinase still bound, per cent of control (PRKD1 (human)) [%] | kinase still bound, per cent of control (BLK (human)) [%] | kinase still bound, per cent of control (STK24 (human)) [%] | kinase still bound, per cent of control (MAPK3 (human)) [%] | kinase still bound, per cent of control (CDKL2 (human)) [%] | kinase still bound, per cent of control (KDR (human)) [%] | kinase still bound, per cent of control (RPS6KA1 KD1 (human)) [%] | kinase still bound, per cent of control (NTRK3 (human)) [%] | kinase still bound, per cent of control (DAPK1 (human)) [%] | kinase still bound, per cent of control (DDR1 (human)) [%] | kinase still bound, per cent of control (PTK6 (human)) [%] | kinase still bound, per cent of control (EPHB3 (human)) [%] | kinase still bound, per cent of control (YES1 (human)) [%] | kinase still bound, per cent of control [2] [%] | other results
CCN1CCN(Cc2ccc(NC(=O)c3ccc(C)c(/C=C/c4cnc5[nH]ccc5c4OC)c3)cc2C(F)(F)F)CC1 | 2.9 | 3.2 | 100 | 4.2 | 1.1 | 28 | 3.5 | 0.15 | 20 | 100 | 1.6 | 2.6 | 31 | 0.95 | 100 | 0.15 | 9.6 | 4.7 | 0.65 | 64 | kinase still bound, per cent of control (ULK1 (human)): 8.5%; kinase still bound, per cent of control (SNRK (human)): 95%; kinase still bound, per cent of control (MTOR (human)): 100%; kinase still bound, per cent of control (FLT1 (human)): 2.4%; kinase still bound, per cent of control (CDK3 (human)): 100%; kinase still bound, per cent of control (PIP4K2C (human)): 100%; kinase still bound, per cent of control (TSSK1B (human)): 100%; kinase still bound, per cent of control (SRPK3 (human)): 13%; kinase still bound, per cent of control [3]: 2.8%; kinase still bound, per cent of control (INSR (human)): 79%; kinase still bound, per cent of control (CAMKK2 (human)): 100%; kinase still bound, per cent of control (STK17A (human)): 1.3%; kinase still bound, per cent of control (TAOK3 (human)): 0%; kinase still bound, per cent of control (CDK5 (human)): 100%; kinase still bound, per cent of control (AXL (human)): 4.6%; kinase still bound, per cent of control (PIK3CG (human)): 96%; kinase still bound, per cent of control (RAF1 (human)): 0.9%; kinase still bound, per cent of control (KIT (human)): 0%; kinase still bound, per cent of control (CSNK1E (human)): 45%; kinase still bound, per cent of control (STK38 (human)): 72%
CNC(=O)Nc1ccc(-c2nc(N3CC4CCC(C3)O4)c3cnn(C4CCC5(CC4)OCCO5)c3n2)cc1 | 88 | 100 | 81 | 100 | 52 | 52 | 100 | 96 | 96 | 97 | 100 | 76 | 100 | 93 | 12 | 66 | 55 | 92 | 97 | 89 | kinase still bound, per cent of control (ULK1 (human)): 100%; kinase still bound, per cent of control (SNRK (human)): 100%; kinase still bound, per cent of control (MTOR (human)): 5.7%; kinase still bound, per cent of control (FLT1 (human)): 92%; kinase still bound, per cent of control (CDK3 (human)): 99%; kinase still bound, per cent of control (PIP4K2C (human)): 100%; kinase still bound, per cent of control (TSSK1B (human)): 100%; kinase still bound, per cent of control (SRPK3 (human)): 100%; kinase still bound, per cent of control [3]: 99%; kinase still bound, per cent of control (INSR (human)): 84%; kinase still bound, per cent of control (CAMKK2 (human)): 100%; kinase still bound, per cent of control (STK17A (human)): 100%; kinase still bound, per cent of control (TAOK3 (human)): 90%; kinase still bound, per cent of control (CDK5 (human)): 88%; kinase still bound, per cent of control (AXL (human)): 88%; kinase still bound, per cent of control (PIK3CG (human)): 72%; kinase still bound, per cent of control (RAF1 (human)): 100%; kinase still bound, per cent of control (KIT (human)): 91% and 93%; kinase still bound, per cent of control (CSNK1E (human)): 39%; kinase still bound, per cent of control (STK38 (human)): 100%
O=c1[nH]c2ccccc2n1C1CCN(Cc2ccc(-c3nc4cc5[nH]cnc5cc4nc3-c3ccccc3)cc2)CC1 | 100 | 97 | 50 | 75 | 77 | 100 | 86 | 76 | 100 | 100 | 77 | 86 | 91 | 98 | 100 | 86 | 100 | 100 | 100 | 100 | kinase still bound, per cent of control (ULK1 (human)): 78%; kinase still bound, per cent of control (SNRK (human)): 91%; kinase still bound, per cent of control (MTOR (human)): 100%; kinase still bound, per cent of control (FLT1 (human)): 89%; kinase still bound, per cent of control (CDK3 (human)): 100%; kinase still bound, per cent of control (PIP4K2C (human)): 83%; kinase still bound, per cent of control (TSSK1B (human)): 82%; kinase still bound, per cent of control (SRPK3 (human)): 87%; kinase still bound, per cent of control [3]: 51%; kinase still bound, per cent of control (INSR (human)): 64%; kinase still bound, per cent of control (CAMKK2 (human)): 97%; kinase still bound, per cent of control (STK17A (human)): 100%; kinase still bound, per cent of control (TAOK3 (human)): 84%; kinase still bound, per cent of control (CDK5 (human)): 100%; kinase still bound, per cent of control (AXL (human)): 45%; kinase still bound, per cent of control (PIK3CG (human)): 25%; kinase still bound, per cent of control (RAF1 (human)): 99%; kinase still bound, per cent of control (KIT (human)): 95% and 89%; kinase still bound, per cent of control (CSNK1E (human)): 15%; kinase still bound, per cent of control (STK38 (human)): 62%
